Each compound was assayed on maximal (tonic hindlimb extension) electroshock seizures in male rats (Sprague Dawley) (assay: Rat MEST (maximal electroshock seizure threshold) test). Conditions: 2 mg/kg p.o., suspension in methyl cellulose, one hour post dosing, statistically significant.
Assay type: in vivo
Procedure: The maximal electroshock seizure (MEST) threshold test in rodents is particularly sensitive for detecting potential anticonvulsant properties ^1. In this model, anticonvulsant agents elevate the threshold to electrically-induced seizures whilst proconvulsants lower the seizure threshold.
The threshold for maximal (tonic hindlimb extension) electroshock seizures in male rats (Sprague Dawley, 80-150 g, 6 weeks old) was determined by a Hugo Sachs Electronik stimulator which delivered a constant current (0.3 sec duration; from 1-300mA in steps of 5-20mA). The procedure is similar to that outlined above for mouse and full details are as published by Upton et al.^4
The percentage increase or decrease in CC50 for each group compared to the control is calculated.
Drugs are suspended in 1% methyl cellulose.

Row | Structure (SMILES) | increase in seizure threshold [%]
1 | CCOc1cc(OC)c(C(=O)Nc2cccc3c2CCN(C)C3)cc1Br [Example 17, N-(2-Methyl-1,2,3,4-tetrahydroisoquinolin-5-yl)-5-bromo-4-ethoxy-2-methoxybenzamide] | 403
2 | COc1cc(OC)c(C(=O)Nc2cccc3c2CCN(C)C3)cc1C#N.Cl [Example 23, N-(2-Methyl-1,2,3,4-tetrahydroisoquinolin-5-yl)-2,4-dimethoxy-5-cyanobenzamide, hydrochloride] | 107
3 | CCOc1cc(C(C)C)c(C#N)cc1C(=O)Nc1cccc2c1CCN(C)C2.Cl [Example 16, N-(2-Methyl-1,2,3,4-tetrahydroisoquinolin-5-yl)-5-cyano-2-ethoxy-4-iso-propylbenzamide, hydrochloride] | 336
4 | COc1cc(C(C)C)c(C#N)cc1C(=O)Nc1cccc2c1CCN(C)C2.Cl [Example 10, N-(2-Methyl-1,2,3,4-tetrahydroisoquinolin-5-yl)-5-cyano-2-methoxy-4-iso-propylbenzamide, hydrochloride] | 152
5 | CCOc1cc(C(C)C)c(C(F)(F)F)cc1C(=O)Nc1cccc2c1CCN(C)C2 [Example 11, N-(2-Methyl-1,2,3,4-tetrahydroisoquinolin-5-yl)-2-ethoxy-4-iso-propyl-5-trifluoromethylbenzamide] | 92

Source: patent US20010025045A1, “Substituted isoquinoline derivatives and their use as anticonvulsants” (SmithKline Beecham p.l.c., priority 1997, published 2001)
